Measured values as given in PMC6054081, “De novo design of isopeptide bond-tethered triple-stranded coiled coils with exceptional resistance to unfolding and proteolysis: implication for developing antiviral therapeutics” (Chemical Science, 2015).
Bridge positions count the residues as written; N and C are the ends. Peptide text beside a SMILES is read from it. I, II: the chains in the order shown.

Assays:
[1] = Sedimentation velocity analysis (SVA), oligomerization state; type: physicochemical; details: 150 μM in PBS (pH 7.4), 60,000 rpm, 20 °C, 280 nm; for Sedimentation coefficient: SEDFIT; for Observed molecular mass (kDa) by sedimentation analysis: SEDFIT c(M)
Method: All measurements were performed on a ProteomelabTMXL-A/XL-I analytical ultracentrifuge (Beckman Coulter, Fullerton, CA, USA) at 20 °C, as described previously. In brief, three-channel cells were used with an An-60 Tirotor. Lyophilized peptides were resuspended in ddH2O (pH 7.0) at approximately 1 mg mL^–1. The individual proteins were prepared in PBS and incubated at 37 °C for 30 min. All samples were prepared at a final concentration of 150 μM and were initially scanned at 3000 rpm for 10 min to identify the appropriate wavelength for data collection. Data were collected at 60 000 rpm at a wavelength of 280 nm. Sedimentation coefficient distribution, c(s), and molecular mass distribution, c(M), were calculated using the SEDFIT program.
Table S1. […]
Sedimentation equilibrium studies were performed at a concentration of 150 μM in PBS (pH 7.4) and a rotor speed of
60,000 rpm at 20 °C. b The theoretical molecular mass for the HR peptides in the monomeric conformation.
(§1) Table S2. Sequences of designed peptides a
(§2) a The Glu residues with a thioester side chain are underlined. Isopeptide bonds are formed between Lys-9 and Glu-14 (in […]

[2] = CD spectroscopy, α-helicity; type: physicochemical; details: CD in PBS, pH 7.4, final peptide concentration 10 μM, pre-incubated 37 °C 0.5 h
Method: (§3) Lyophilized peptides were resuspended in ddH2O (pH 7.0) at a concentration of approximately 1 mg mL^–1. […] The peptides were incubated in a water bath set at 37 °C for 0.5 h before testing. CD spectra were acquired on an MOS-450 system (BioLogic, Claix, France) using the following parameters: band width, 4.0 nm; resolution, 0.1 nm; path length, 0.1 cm; response time, 4.0 s; and scanning speed, 50 nm min^–1. For CD thermal denaturation analysis, the temperature was controlled by a BioLogic TCU250 system, and CD spectra were monitored at 222 nm from 10 °C to 90 °C at a scan speed of 2 °C min^–1.
(§4) Table S1. Biophysical properties of the designed peptides a
(§5) a CD spectra of each designed peptide were monitored in PBS, pH 7.4. The final peptide concentration was 10 μM. […]

[3] = CD thermal denaturation (Tm); type: physicochemical; details: CD at 222 nm, 10 °C to 90 °C at 2 °C min–1, PBS pH 7.4, 10 μM peptide
Method: as §3
The samples were incubated at room temperature for 3 h before their full-range CD spectra or the ellipticities at 222 nm were recorded. For thermal denaturation studies, the stock peptide solutions were diluted with appropriate volumes of buffer and guanidine hydrochloride. Thermal denaturation was performed by monitoring the ellipticity change at 222 nm from 10 °C to 90 °C at a rate of 2 °C min^–1.
as §4, §5, §1, §2

[4] = Chemical denaturation by Gdn·HCl followed by CD at 222 nm; type: physicochemical; details: 7 M Gdn·HCl in PBS pH 7.4, 3 h at room temperature, CD 222 nm (Fig. 3C)
Method: For thermal denaturation studies, the stock peptide solutions were diluted with appropriate volumes of buffer and guanidine hydrochloride.

[5] = tested on: HIV-1 Env-mediated cell–cell fusion; details: read-out: EC50 (nM) for inhibiting cell–cell fusion; HL2/3 and TZM-bl cells coincubated 6–8 h at 37 °C, luciferase read-out; triplicate, mean ± standard deviation
Method: Cell–cell fusion assays were performed as described previously.[26] HL2/3 cells, which stably express HIV Gag, Env, Tat, Rev, and Nef proteins, as well as TZM-bl cells, which stably express large amounts of CD4 and CCR5, were obtained from the NIH AIDS Reference and Reagent Program (contributed by Drs Barbara Felber and George Pavlakis and Drs John C. Kappes and Xiaoyun Wu, respectively). TZM-bl cells (2.5 × 10^4 per well) and HL2/3 cells (7.5 × 10^4 per well) were coincubated in 96-well plates (Corning Costar) at 37 °C in 5% CO2 in the presence of different concentrations of inhibitors. After incubation for 6–8 h, the medium was aspirated, the cells were washed and lysed, and luciferase activity was measured using the Luciferase Assay System (Promega, Madison, WI) on a SpectraMax M5 plate reader (Molecular Devices, Sunnyvale, CA).

HIV-1IIIB = HIV-1IIIB infection assay (MT-2 cells, p24 ELISA); type: cell-based; details: 100 TCID50, p24 ELISA on fourth day post-infection, triplicate, mean ± standard deviation, read-out: EC50 (nM) for inhibiting HIV–1IIIB infection
Description: (§6) To measure the inhibitory activity of the peptides on infection of HIV-1IIIB and HIV-1BaL, 1 × 10^4 MT-2 cells and TZM-b1 cells, respectively, were infected with 100 times the median tissue culture infective dose of a virus in the presence or absence of the peptides at graded concentrations. On the fourth day post-infection, the culture supernatants were collected for detection of p24 antigen using an enzyme-linked immunosorbent assay (ELISA). The percent inhibition by the peptides and EC50 values was calculated using Calcusyn software.[27]

HIV-1BaL = HIV-1BaL infection assay (TZM-b1 cells, p24 ELISA); type: cell-based; details: 100 TCID50, p24 ELISA on fourth day post-infection, triplicate, mean ± standard deviation, read-out: EC50 (nM) for inhibiting HIV-1BaL infection
Description: as §6

proteinase K = proteinase K (Parengyodontium album, UniProt P06873); details: 20 ng/mL proteinase K in PBS, peptide 10 μg/mL, LC-MS/MS (SIM) (Fig. 4A)
Chain of proteinase K (P06873 106-384): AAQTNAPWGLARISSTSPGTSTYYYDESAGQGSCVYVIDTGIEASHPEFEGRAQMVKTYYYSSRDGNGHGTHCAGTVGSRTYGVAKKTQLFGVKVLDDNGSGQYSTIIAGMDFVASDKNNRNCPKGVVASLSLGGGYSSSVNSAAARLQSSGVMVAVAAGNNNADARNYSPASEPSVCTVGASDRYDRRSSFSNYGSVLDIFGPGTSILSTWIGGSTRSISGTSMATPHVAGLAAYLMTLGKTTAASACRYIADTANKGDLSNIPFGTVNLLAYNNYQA
Method: (§7) Qualification assay. Chromatographic analyses were performed using an ODS-C8 column (5 μm, 100 mm × 2.0mm ID) kept at ambient temperature. The mobile phase was composed of acetonitrile-water-formic acid in the ratio of 60:40:0.1 (v/v/v) at a flow rate of 0.3 mL/min. The sample injection volume was 10 μL. Acetonitrile was HPLC grade, and other chemical reagents and solvents were analytical grade. A Thermo TSQ Quantum Discovery MAX triple–quadruple tandem mass spectrometer equipped with ESI source (San Jose, CA) and Surveyor LC pump were used for LC-MS/MS analysis. Data acquisition and data processing were performed by using Xcalibur software and LCQuan 2.0 data analysis program (Thermo Finnigan), respectively. Optimized MS parameters were as below: 4800 V spray voltage, 10.0 psi sheath gas pressure, 1.0 psi auxiliary valve flow, and 300 °C of capillary temperature. When running collision-induced dissociation (CID), the pressure was set to 1.5 mTorr. The selected ion monitoring (SIM) mode was preformed for T20
(§8) Preparation of Samples. By use of a simple protein precipitation method, a test compound was extracted from liver
(§9) homogenate and 20 ng/mL proteinase K in PBS, respectively. Samples for standard curves were prepared by spiking 50
(§10) μL of rat liver homogenate or 20 ng/mL proteinase K with 100 μL of various concentrations of each test compound
(§11) ranging from 0.1－5 μg/mL in ethanol. […]

[6] = rat (Sprague-Dawley, three pooled) liver homogenate, 4 mL Tris–HCl 50 mM pH 7.4 per g, 9,000g supernatant, peptide 10 μg/mL, LC-MS/MS (SIM) (Fig. 4B)
Method: as §7, §8, §9, §10, §11

Molecule	Sedimentation coefficient [1]	Observed molecular mass (kDa) by sedimentation analysis [1]	Helicity (%) [2]	Tm (°C) [3]	[θ]G/[θ]0 ([θ]222 with Gdn·HCl vs. without) / resistance to Gdn·HCl unfolding [4]	EC50 [5]	EC50 (HIV-1IIIB)	EC50 (HIV-1BaL)	proteolytic stability in proteinase K, compared with T20 (proteinase K)	proteolytic stability in liver homogenate, compared with T20 [6]
CC[C@H](C)[C@H](NC(=O)[C@H](CCC(N)=O)NC(=O)[C@H](CCC(N)=O)NC(=O)[C@@H](NC(=O)[C@H](CCCNC(=N)N)NC(=O)[C@H](CCC(N)=O)NC(=O)[C@H](CCC(=O)O)NC(=O)[C@@H](NC(=O)[C@H](Cc1c[nH]cn1)NC(=O)[C@H](Cc1c[nH]cn1)NC(=O)[C@@H](NC(=O)[C@H](CCCCN)NC(=O)[C@H](CCC(N)=O)NC(=O)[C@H](CCC(=O)O)NC(=O)[C@@H](NC(=O)[C@H](CCC(N)=O)NC(=O)[C@H](CCC(N)=O)NC(=O)[C@@H](NC(=O)[C@H](CCCNC(=N)N)NC(=O)[C@H](Cc1c[nH]c2ccccc12)NC(C)=O)[C@@H](C)CC)[C@@H](C)CC)[C@@H](C)CC)[C@@H](C)CC)[C@@H](C)CC)C(=O)N[C@@H](CCC(=O)O)C(=O)N[C@@H](CCC(N)=O)C(N)=O [Compound 3HR] (Ac-WRIQQIEQKIHHIEQRIQQIEQ-NH2)	1.2 s	9.9 kDa	46.4%	44 °C	completely lost its tertiary structure	–	–	–	–	–
CC[C@H](C)[C@H](NC(=O)[C@H](CCC(N)=O)NC(=O)[C@H](CCC(N)=O)NC(=O)[C@@H](NC(=O)[C@H](CCCNC(=N)N)NC(=O)[C@H](CCC(N)=O)NC(=O)[C@H](CCC(=O)O)NC(=O)[C@@H](NC(=O)[C@H](CCC(N)=O)NC(=O)[C@H](CCC(N)=O)NC(=O)[C@@H](NC(=O)[C@H](CCCNC(=N)N)NC(=O)[C@H](CCC(N)=O)NC(=O)[C@H](CCC(=O)O)NC(=O)[C@@H](NC(=O)[C@H](Cc1c[nH]cn1)NC(=O)[C@H](Cc1c[nH]cn1)NC(=O)[C@@H](NC(=O)[C@H](CCCCN)NC(=O)[C@H](CCC(N)=O)NC(=O)[C@H](CCC(=O)O)NC(=O)[C@@H](NC(=O)[C@H](CCC(N)=O)NC(=O)[C@H](CCC(N)=O)NC(=O)[C@@H](NC(=O)[C@H](CCCNC(=N)N)NC(=O)[C@H](Cc1c[nH]c2ccccc12)NC(C)=O)[C@@H](C)CC)[C@@H](C)CC)[C@@H](C)CC)[C@@H](C)CC)[C@@H](C)CC)[C@@H](C)CC)[C@@H](C)CC)C(=O)N[C@@H](CCC(=O)O)C(=O)N[C@@H](CCC(N)=O)C(N)=O [Compound 4HR] (Ac-WRIQQIEQKIHHIEQRIQQIEQRIQQIEQ-NH2)	1.3 s	10.5 kDa	99.5%	higher than 90 °C	~0.2	–	–	–	–	–
CC[C@H](C)[C@H](NC(C)=O)C(=O)N[C@@H](CCC(=O)O)C(=O)N[C@@H](C)C(=O)N[C@@H](CCC(N)=O)C(=O)N[C@@H](CCC(N)=O)C(=O)N[C@@H](Cc1c[nH]cn1)C(=O)N[C@@H](CC(C)C)C(=O)N[C@@H](CC(C)C)C(=O)N[C@@H](CCC(N)=O)C(=O)N[C@@H](CC(C)C)C(=O)N[C@H](C(=O)N[C@H](C(=O)N[C@@H](Cc1c[nH]c2ccccc12)C(=O)NCC(=O)N[C@H](C(=O)N[C@@H](CCCCN)C(=O)N[C@@H](CCC(N)=O)C(=O)N[C@@H](CC(C)C)C(=O)N[C@@H](CCC(N)=O)C(=O)N[C@@H](C)C(=O)N[C@@H](CCCNC(=N)N)C(=O)N[C@H](C(=O)N[C@@H](CC(C)C)C(N)=O)[C@@H](C)CC)[C@@H](C)CC)C(C)C)[C@@H](C)O [Compound N23, reference compound] (Ac-IEAQQHLLQLTVWGIKQLQARIL-NH2)	–	–	16.8%	not detected	–	> 5000 nM	> 10000 nM	> 10000 nM	–	–
I: Ac-WRIQQIEQKIHHIEQRIQQIEQ-NH2 / II: Ac-WRIQQIEQKIHHIEQRIQQIEQ-NH2 / III: Ac-WRIQQIEQKIHHIEQRIQQIEQ-NH2 (amide I:9-III:14, I:14-II:9, II:14-III:9) [(3HR)3]	1.2 s	9.2 kDa	83.4%	higher than 90 °C	almost unbreakable	> 5000 nM	> 10000 nM	> 10000 nM	–	–
I: Ac-WRIQQIEQKIHHIEQRIQQIEQRIQQIEQ-NH2 / II: Ac-WRIQQIEQKIHHIEQRIQQIEQRIQQIEQ-NH2 / III: Ac-WRIQQIEQKIHHIEQRIQQIEQRIQQIEQ-NH2 (amide I:9-III:14, I:14-II:9, II:14-III:9) [(4HR)3]	1.5 s	13.3 kDa	–	higher than 90 °C	almost unbreakable	> 5000 nM	> 10000 nM	> 10000 nM	–	–
W RIQQIEQ KI HHIE Q RIQQIEQ RIEAQQH LLQLTVW GIKQLQA RIL (sidechain bridge or staple) [(3HRN23)3]	1.6 s	17.3 kDa	89.6%	> 90 °C	–	10.2 ± 0.9 nM	21.3 ± 1.8 nM	58.2 ± 1.5 nM	much more resistant than T20	much more resistant than T20
